Tested on: HIV-1 cell line, CEMRF
Test: Long term in vitro study, CEMRF cells, reverse transcriptase analysis
Assay type: cell-based
Parameters: Reverse transcriptase data: unit not given here
Protocol: A microtiter-based reveres transcriptase (RT) reaction is utilized (Buckheit et al (1991) AIDS Research and Human Retroviruses 7:295-302). Tritiated thymidine triphosphate (NEN)(TTP) is resuspended in distilled water at 5 Ci/ml. Poly rA and oligo dT are prepared as a stock solution which is kept at -20° C. The RT reaction buffer is prepared fresh on a daily basis and consists of 125 μl 1M EGTA, 125 μl water, 125 μl Triton X-100, 50 μl Tris (pH 7.4), 50 μl MDDT, and 40 μl 1M MgCl2. These three solutions are mixed together in a ratio of 1 part TTP, 2.5 parts poly rA:oligo dT, 2.5 parts reaction buffer and 4 parts distilled water. Ten microliters of this reaction mixture is placed in a round bottom microtiter place and 15 μl of virus containing supernatant is added and mixed. The plate is incubated at 37° C. and incubated for 60 minutes. Following reaction, the reaction volume is spotted onto filter mats, washed 6 times for 5 minutes each in a 5% sodium phosphate buffer, 2 times for 1 minute each in distilled water, 2 times for 1 minute each in 70% ethanol, and then dried. The dried filter mat is placed in a plastic sample bag, Betaplate scintillation fluid is added and the bag is heat sealed. Incorporated radioactivity is quantified utilizing a Wallac Microbeta scintillation counter.
Acute infection of most established human cell lines with HIV- I results in the eventual establishment of a constitutive virus-producing chronically infected cell line. The cells can be passaged for long periods of time in culture without loss of virus production. These cells may be utilized to evaluate the effects of anti-HIV compounds on syncytium formation or to evaluate the effects of anti-HIV compounds on levels of virus production from these cells. […] Each of the cells contains an integrated HIV genome or provirus. Chronically infected CEM, H9 and U937 cell lines have been prepared and cultured by Southern Research Institute, Frederick Md. and are available from them.
CEM-SS cells chronically infected with HIV isolate, for example SKI (CEM-SKI) are cultured in RPM1640 tissue culture medium supplemented with 10% fetal bovine serum and antibiotics. Selection is performed by culturing the cells in the presence of the compound to be tested in T25 flasks. CEM-SKI or other infected cells with no added drug are used as the control cells. Cells are allowed to grow to a density of approximately 1×10^6 cells/ml and are then passaged at a 1:10 dilution. After a period of time, usually one week intervals of drug treatment, cells are evaluated to determine if the inhibitory activity of the compound has been affected by treatment of the cells with either compounds. The drug concentration in the flask is then increased two-fold and the cells maintained as above.
The cell populations contain integrated copies of the HIV genome and constitutively produce HIV at relatively high levels or are latently infected and only produce virus after stimulation with phorbol esters, tumor necrosis factor or IL6(U1 and ACH2). Reductions in virus products were observed when quantifying supernatant reverse transcriptase activity,
Toxicity Values are measured by XTT and activity of the compound in the tests is measured by a Reverse Transcriptase analysis.
A long term in vitro study of 3-hexahydro-3-ethyl-1-methyl-2-oxo-1H-azepin-3-yl)phenyl ester of 4-chlorophenyl carbamic acid against an HIV-1 cell line, CEMRF, was conducted at three different levels. The results with CEMRF cells were reported at weekly intervals. CEMRF is a chronic HIV cell line.

Compound: CCC1(c2cccc(OC(=O)Nc3ccc(Cl)cc3)c2)CCCCN(C)C1=O (stereo not shown) [(4-chlorophenyl)-carbamic acid, 3-(hexahydro-3-ethyl-1-methyl-2-oxo-1H-azepin-3-yl) 2 phenyl ester]
- Reverse transcriptase data (7 μg/ml, Day 4): 1942
- Reverse transcriptase data (7 μg/ml, Day 11): 1537
- Reverse transcriptase data (7 μg/ml, Day 18): 1683
- Reverse transcriptase data (7 μg/ml, Day 25): 1624
- Reverse transcriptase data (7 μg/ml, Day 32): 1286
- Reverse transcriptase data (7 μg/ml, Day 39): 1368
- Reverse transcriptase data (7 μg/ml, Day 46): 1588
- Reverse transcriptase data (7 μg/ml, Day 53): 1482
- Reverse transcriptase data (7 μg/ml, Day 60): 1381
- Reverse transcriptase data (7 μg/ml, Day 67): 1231
- Reverse transcriptase data (7 μg/ml, Day 71): 1321
- Reverse transcriptase data (7 μg/ml, Day 74): 1528
- Reverse transcriptase data (7 μg/ml, Day 88): 1454
- Reverse transcriptase data (7 μg/ml, Day 95): 1168
- Reverse transcriptase data (7 μg/ml, Day 102): 1463
- Reverse transcriptase data (7 μg/ml, Day 109): 1440
- Reverse transcriptase data (15 μg/ml, Day 4): 1402
- Reverse transcriptase data (15 μg/ml, Day 11): 1402
- Reverse transcriptase data (15 μg/ml, Day 18): 1281
- Reverse transcriptase data (15 μg/ml, Day 25): 1582
- Reverse transcriptase data (15 μg/ml, Day 32): 1140
- Reverse transcriptase data (15 μg/ml, Day 39): 1028
- Reverse transcriptase data (15 μg/ml, Day 46): 1056
- Reverse transcriptase data (15 μg/ml, Day 53): 1160
- Reverse transcriptase data (15 μg/ml, Day 60): 1056
- Reverse transcriptase data (15 μg/ml, Day 67): 1002
- Reverse transcriptase data (15 μg/ml, Day 71): 1108
- Reverse transcriptase data (15 μg/ml, Day 74): 1201
- Reverse transcriptase data (15 μg/ml, Day 88): 1068
- Reverse transcriptase data (15 μg/ml, Day 95): 1004
- Reverse transcriptase data (15 μg/ml, Day 102): 1165
- Reverse transcriptase data (15 μg/ml, Day 109): 1265
- Reverse transcriptase data (30 μg/ml, Day 4): 650
- Reverse transcriptase data (30 μg/ml, Day 11): 463
- Reverse transcriptase data (30 μg/ml, Day 18): 221
- Reverse transcriptase data (30 μg/ml, Day 25): 643
- Reverse transcriptase data (30 μg/ml, Day 32): 462
- Reverse transcriptase data (30 μg/ml, Day 39): 221
- Reverse transcriptase data (30 μg/ml, Day 46): 149
- Reverse transcriptase data (30 μg/ml, Day 53): 281
- Reverse transcriptase data (30 μg/ml, Day 60): 248
- Reverse transcriptase data (30 μg/ml, Day 67): 147
- Reverse transcriptase data (30 μg/ml, Day 71): 201
- Reverse transcriptase data (30 μg/ml, Day 74): 161
- Reverse transcriptase data (30 μg/ml, Day 88): 249
- Reverse transcriptase data (30 μg/ml, Day 95): 176
- Reverse transcriptase data (30 μg/ml, Day 102): 197
- Reverse transcriptase data (30 μg/ml, Day 109): 370
- Reverse transcriptase data, continued test (run through 222 days): data remained consistent

Reference: US6225307A, “Viral treatment” (priority 2000, dated 2001)
